Reference: ChEMBL document CHEMBL4732125, “Structures/cytotoxicity/selectivity relationship of natural steroidal saponins against GSCs and primary mechanism of tribulosaponin A” (Eur J Med Chem, 2021)
Calls of active or inactive are those of the source. The rule behind the calls is not given here.

Experiments:
U-87 MG [1] = experiment: Cytotoxicity against human U-87 MG cells assessed as inhibition of cell growth at 20 uM after 5 days; type: cell-based; conditions: u-87mg atcc, 120 h, time 5 day
U-87 MG [2] = experiment: Inhibition of colony formation in human U-87 MG cells assessed as tumor spheres damage at 15 uM by crystal violet staining based assay; type: functional, cell-based; conditions: U-87MG ATCC
[3] = Induction of apoptosis in human GSC-3 cells assessed as late apoptotic cells at 20 uM incubated for 36 hrs by Annexin V-FITC/PI staining based flow cytometric analysis (reference value: 7.79%); type: functional
[4] = Induction of apoptosis in human GSC-3 cells assessed as early apoptotic cells at 7.5 uM incubated for 36 hrs by Annexin V-FITC/PI staining based flow cytometric analysis (reference value: 6.99%); type: functional
GSC-18 [5] = experiment: Cytotoxicity against human GSC18 cells assessed as inhibition of cell growth at 20 uM after 5 days; type: functional, cell-based; conditions: time 5.0 day
GSC-3 [6] = experiment: Antiproliferative activity against human GSC-3 cells assessed as inhibition of cell growth at 15 uM after 48 hrs by BrdU incorporation assay; type: functional, cell-based
GSC-18 [7] = experiment: Inhibition of colony formation in human GSC-18 cells assessed as decrease in number of tumor spheres at 15 uM after 2 weeks by crystal violet staining based assay; type: functional, cell-based
[8] = Cytotoxicity against human GSC18 cells assessed as reduction in cell viability after 72 hrs by MTS assay; type: functional, cell-based, GSC-18; conditions: GSC18, 72 h
GSC-3 [9] = experiment: Induction of apoptosis in human GSC-3 cells assessed as cell shrank at 20 uM; type: functional, cell-based
[10] = Induction of apoptosis in human GSC-3 cells assessed as early apoptotic cells at 20 uM incubated for 36 hrs by Annexin V-FITC/PI staining based flow cytometric analysis (reference value: 6.99%); type: functional
GSC-18 [11] = experiment: Induction of apoptosis in human GSC-18 cells assessed as increase in cleaved caspase 3 at 15 uM after 48 hrs by immunofluorescence assay; type: functional, cell-based
T98G [12] = experiment: Cytotoxicity against human T98G cells assessed as inhibition of cell growth at 20 uM after 5 days; type: cell-based; conditions: 120 h, time 5 day
HEK-293T [13] = experiment: Induction of apoptosis in human 293T cells assessed as accumulation of ROS by measuring increase in NOX1 expression at 15 uM after 48 hrs by transcriptome analysis; type: functional, cell-based
[14] = Induction of apoptosis in human GSC-3 cells assessed as late apoptotic cells at 10 uM incubated for 36 hrs by Annexin V-FITC/PI staining based flow cytometric analysis (reference value: 7.79%); type: functional
HEK-293T [15] = experiment: Cytotoxicity against human 293T cells assessed as inhibition of cell growth at 20 uM after 5 days; type: cell-based; conditions: 120 h, time 5 day
[16] = Induction of apoptosis in human GSC-3 cells assessed as necrotic cells at 7.5 uM incubated for 36 hrs by Annexin V-FITC/PI staining based flow cytometric analysis (reference value: 1.42%); type: functional
GSC-3 [17] = experiment: Induction of apoptosis in human GSC-3 cells assessed as accumulation of ROS by measuring increase in NOX1 expression at 15 uM after 48 hrs by transcriptome analysis; type: functional, cell-based
GSC-18 [18] = experiment: Induction of apoptosis in human GSC-18 cells assessed as ROS accumulation at 4 to 12 uM after 3 hrs in presence of NAC by DCFH-DA assay; type: functional, cell-based; conditions: dose 4-12 µM
T98G [19] = experiment: Inhibition of colony formation in human […] cells assessed as tumor spheres damage at 15 uM by crystal violet staining based assay; type: functional, cell-based
GSC-3 [20] = experiment: Induction of apoptosis in human GSC-3 cells assessed as appearance of round and detached cells at 20 uM; type: functional, cell-based
HUVEC [21] = experiment: Cytotoxicity against HUVEC assessed as reduction in cell viability after 72 hrs by MTS assay; type: cell-based, Homo sapiens; conditions: Homo sapiens, HUVEC
GSC-3 [22] = experiment: Induction of apoptosis in human GSC-3 cells assessed as reduction in Bcl-2 protein expression at 7.5 to 20 uM after 48 hrs by Western blotting analysis; type: functional, cell-based; conditions: dose 7.5-20 µM
HUVEC [23] = experiment: Cytotoxicity against HUVEC assessed as inhibition of cell growth at 20 uM after 5 days; type: cell-based; conditions: human, 120 h, time 5 day
GSC-3 [24] = experiment: Induction of apoptosis in human GSC-3 cells assessed as ROS accumulation at 4 to 12 uM after 3 hrs in presence of NAC by DCFH-DA assay; type: functional, cell-based; conditions: dose 4-12 µM
[25] = Induction of apoptosis in human GSC-3 cells assessed as necrotic cells at 10 uM incubated for 36 hrs by Annexin V-FITC/PI staining based flow cytometric analysis (reference value: 1.42%); type: functional
GSC-18 [26] = experiment: Induction of apoptosis in human GSC-18 cells assessed as cell shrank at 20 uM; type: functional, cell-based
[27] = Induction of apoptosis in human GSC-3 cells assessed as viable cells at 20 uM incubated for 36 hrs by Annexin V-FITC/PI staining based flow cytometric analysis (reference value: 83.8%); type: functional; conditions: read-out: Activity
HEK-293T [28] = experiment: Induction of apoptosis in human 293T cells assessed as accumulation of ROS by measuring increase in NCF1 expression at 15 uM after 48 hrs by transcriptome analysis; type: functional, cell-based
[29] = Cytotoxicity against human GSC3 cells assessed as reduction in cell viability after 72 hrs by MTS assay; type: functional, cell-based; conditions: GSC-3, 72 h
T98G [30] = experiment: Inhibition of colony formation in human […] cells assessed as decrease in number of tumor spheres at 15 uM by crystal violet staining based assay; type: functional, cell-based
GSC-3 [31] = experiment: Induction of apoptosis in human GSC-3 cells assessed as accumulation of ROS by measuring increase in NCF1 expression at 15 uM after 48 hrs by transcriptome analysis; type: functional, cell-based
GSC-18 [32] = experiment: Inhibition of colony formation in human GSC-18 cells assessed as tumor spheres damage at 15 uM after 2 weeks by crystal violet staining based assay; type: functional, cell-based
U-87 MG [33] = experiment: Inhibition of colony formation in human U-87 MG cells assessed as decrease in number of tumor spheres at 15 uM by crystal violet staining based assay; type: functional, cell-based; conditions: U-87MG ATCC
[34] = Induction of apoptosis in human GSC-3 cells assessed as necrotic cells at 20 uM incubated for 36 hrs by Annexin V-FITC/PI staining based flow cytometric analysis (reference value: 1.42%); type: functional
GSC-18 [35] = experiment: Induction of apoptosis in human GSC-18 cells assessed as appearance of round and detached cells at 20 uM; type: functional, cell-based
[36] = Induction of apoptosis in human GSC-3 cells assessed as early apoptotic cells at 10 uM incubated for 36 hrs by Annexin V-FITC/PI staining based flow cytometric analysis (reference value: 6.99%); type: functional
[37] = Induction of apoptosis in human GSC-3 cells assessed as viable cells at 7.5 uM incubated for 36 hrs by Annexin V-FITC/PI staining based flow cytometric analysis (reference value: 83.8%); type: functional; conditions: read-out: Activity
HEK-293T [38] = experiment: Cytotoxicity against human 293T cells assessed as reduction in cell viability after 72 hrs by MTS assay; type: cell-based; conditions: Homo sapiens, HEK-293T
GSC-3 [39] = experiment: Inhibition of colony formation in human GSC-3 cells assessed as decrease in number of tumor spheres at 15 uM after 2 weeks by crystal violet staining based assay; type: functional, cell-based
GSC-3 [40] = experiment: Inhibition of colony formation in human GSC-3 cells assessed as tumor spheres damage at 15 uM after 2 weeks by crystal violet staining based assay; type: functional, cell-based
GSC-3 [41] = experiment: Cytotoxicity against human GSC3 cells assessed as inhibition of cell growth at 20 uM after 5 days; type: functional, cell-based; conditions: time 5.0 day
[42] = Induction of apoptosis in human GSC-3 cells assessed as viable cells at 10 uM incubated for 36 hrs by Annexin V-FITC/PI staining based flow cytometric analysis (reference value: 83.8%); type: functional; conditions: read-out: Activity
T98G [43] = experiment: Cytotoxicity against human T98G assessed as reduction in cell viability after 72 hrs by MTS assay; type: cell-based; conditions: Homo sapiens, T98G
U-87 MG [44] = experiment: Cytotoxicity against human U-87 MG cells assessed as reduction in cell viability after 72 hrs by MTS assay; type: cell-based, U-87MG ATCC; conditions: Homo sapiens, U-87 MG
[45] = Induction of apoptosis in human GSC-3 cells assessed as late apoptotic cells at 7.5 uM incubated for 36 hrs by Annexin V-FITC/PI staining based flow cytometric analysis (reference value: 7.79%); type: functional
GSC-3 [46] = experiment: Induction of apoptosis in human GSC-3 cells assessed as increase in cleaved caspase 3 at 15 uM after 48 hrs by immunofluorescence assay; type: functional, cell-based
GSC-18 [47] = experiment: Antiproliferative activity against human GSC-18 cells assessed as inhibition of cell growth at 15 uM after 48 hrs by BrdU incorporation assay; type: functional, cell-based

Q: What does the source list for CC1=C(CC[C@H](C)CO[C@@H]2O[C@H](CO)[C@@H](O)[C@H](O)[C@H]2O)O[C@H]2C[C@H]3[C@@H]4CC[C@@H]5C[C@@H](O[C@@H]6O[C@H](CO)[C@@H](O[C@@H]7O[C@@H](C)[C@H](O)[C@@H](O)[C@H]7O)[C@H](O)[C@H]6O[C@@H]6O[C@@H](C)[C@H](O)[C@@H](O)[C@H]6O)CC[C@]5(C)[C@H]4CC[C@]3(C)[C@@H]12?
A: Activity (U-87 MG [1]): Non-Toxic; Activity (U-87 MG [2]): Active; Activity [3]: 5.03%; Activity [4]: 19.4%; Activity (GSC-18 [5]): Active; Activity (GSC-3 [6]): Active; inhibition (GSC-18 [7]): Active; IC50 [8]: 6.6 µM; Activity (GSC-3 [9]): Active; Activity [10]: 53.3%; Activity (GSC-18 [11]): Active; Activity (T98G [12]): Non-Toxic; Activity (HEK-293T [13]): inactive; Activity [14]: 4.67%; Activity (HEK-293T [15]): Non-Toxic; Activity [16]: 1.01%; Activity (GSC-3 [17]): Active; Activity (GSC-18 [18]): inactive; inhibition (T98G [19]): Active; Activity (GSC-3 [20]): Active; IC50 (HUVEC [21]): > 100 µM; Activity (GSC-3 [22]): Active; Activity (HUVEC [23]): Non-Toxic; Activity (GSC-3 [24]): inactive; Activity [25]: 0.69%; Activity (GSC-18 [26]): Active; viability at 20 µM [27]: 41.1%; Activity (HEK-293T [28]): inactive; IC50 [29]: 7 µM; inhibition (T98G [30]): Active; Activity (GSC-3 [31]): Active; Activity (GSC-18 [32]): Active; Activity (U-87 MG [33]): Active; Activity [34]: 0.56%; Activity (GSC-18 [35]): Active; Activity [36]: 34.3%; viability at 7.5 µM [37]: 74.1%; IC50 (HEK-293T [38]): > 100 µM; inhibition (GSC-3 [39]): Active; Activity (GSC-3 [40]): Active; Activity (GSC-3 [41]): Active; viability at 10 µM [42]: 60.4%; IC50 (T98G [43]): > 100 µM; IC50 (U-87 MG [44]): > 100 µM; Activity [45]: 5.46%; Activity (GSC-3 [46]): Active; Activity (GSC-18 [47]): Active
